{
  "source": "ChEMBL document CHEMBL5380779",
  "about": "“Small Molecules Targeting the RNA-Binding Protein HuR Inhibit Tumor Growth in Xenografts” (J Med Chem, 2023)",
  "key": {"MDA-MB-231 [1]": {"tested_on": "MDA-MB-231", "assay": "Inhibition of cell invasion of human MDA-MB-231 cells at 10 uM incubated for 24 hrs by crystal violet staining based analysis", "assay_type": "functional"}, "MDA-MB-231 [2]": {"tested_on": "MDA-MB-231", "assay": "Inhibition of HuR-Bcl-2 mRNA binding in human MDA-MB-231 cells at 10 uM incubated for 6 hrs by RNP immunoprecipitation assay", "assay_type": "cell-based"}, "MDA-MB-231 [3]": {"tested_on": "MDA-MB-231", "assay": "Downregulation of XIAP protein expression in human MDA-MB-231 cells incubated for 48 hrs by Western blotting analysis", "assay_type": "functional, cell-based", "conditions": "dose 5-10 µM"}, "MDA-MB-231 [4]": {"tested_on": "MDA-MB-231", "assay": "Antitumor activity against human MDA-MB-231 cells xenografted athymic NCr-nu/nu mouse assessed as reduction in tumor size at 50 mg/kg, ip administered 5 times a week for 3 weeks in presence of docetaxel", "assay_type": "functional, organism-based"}, "[5]": {"target": "Thrombospondin-1 (Homo sapiens) (UniProt P07996)", "sequence (P07996 19-1170 limits assumed)": "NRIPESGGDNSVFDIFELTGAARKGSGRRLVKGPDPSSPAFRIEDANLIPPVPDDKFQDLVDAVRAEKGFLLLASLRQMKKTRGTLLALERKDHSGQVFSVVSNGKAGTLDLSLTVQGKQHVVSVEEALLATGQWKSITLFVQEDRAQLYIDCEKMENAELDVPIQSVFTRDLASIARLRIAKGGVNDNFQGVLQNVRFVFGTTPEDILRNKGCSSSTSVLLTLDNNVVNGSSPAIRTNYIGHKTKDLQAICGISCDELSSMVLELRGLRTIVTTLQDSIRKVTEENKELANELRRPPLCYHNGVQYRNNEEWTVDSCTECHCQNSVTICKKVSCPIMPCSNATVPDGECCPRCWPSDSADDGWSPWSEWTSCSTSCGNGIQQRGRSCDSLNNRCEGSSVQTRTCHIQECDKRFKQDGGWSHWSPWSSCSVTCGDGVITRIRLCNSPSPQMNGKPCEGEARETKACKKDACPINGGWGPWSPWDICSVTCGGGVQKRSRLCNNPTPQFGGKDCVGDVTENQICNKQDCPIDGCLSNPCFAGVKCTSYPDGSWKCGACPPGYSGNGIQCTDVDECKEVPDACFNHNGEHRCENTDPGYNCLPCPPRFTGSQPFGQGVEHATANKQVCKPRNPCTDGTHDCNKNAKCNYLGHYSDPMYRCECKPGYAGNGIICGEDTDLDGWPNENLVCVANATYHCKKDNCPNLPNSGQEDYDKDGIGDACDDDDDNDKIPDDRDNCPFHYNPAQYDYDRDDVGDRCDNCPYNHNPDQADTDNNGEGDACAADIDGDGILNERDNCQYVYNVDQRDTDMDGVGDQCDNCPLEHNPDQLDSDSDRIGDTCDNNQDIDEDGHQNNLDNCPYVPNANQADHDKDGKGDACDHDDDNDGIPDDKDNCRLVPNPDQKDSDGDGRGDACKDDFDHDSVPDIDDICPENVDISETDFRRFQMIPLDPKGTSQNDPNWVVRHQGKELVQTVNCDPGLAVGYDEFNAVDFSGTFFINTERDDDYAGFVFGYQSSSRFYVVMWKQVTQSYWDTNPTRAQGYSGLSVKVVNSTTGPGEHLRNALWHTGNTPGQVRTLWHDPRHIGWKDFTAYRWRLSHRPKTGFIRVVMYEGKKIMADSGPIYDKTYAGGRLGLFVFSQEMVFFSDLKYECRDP", "assay": "Inhibition of TGFbeta2-induced THBS1 protein expression in human MDA-MB-231 cells at 10 uM incubated for 48 hrs by Western blotting analysis", "assay_type": "cell-based"}, "MDA-MB-231 [6]": {"tested_on": "MDA-MB-231", "assay": "Inhibition of HuR-TGFB2 mRNA binding in human MDA-MB-231 cells assessed as half life of TGFB2 in presence of actinomycin D (reference value: 7.202 hrs)", "assay_type": "cell-based"}, "MDA-MB-231 [7]": {"tested_on": "MDA-MB-231", "assay": "Downregulation of TGFB2 mRNA expression in human MDA-MB-231 cells transfected with THBS1-ORF at 5 to 10 uM incubated for 24 hrs", "assay_type": "functional, cell-based", "conditions": "dose 5-10 µM"}, "MDA-MB-231 [8]": {"tested_on": "MDA-MB-231", "assay": "Inhibition of HuR-THBS1 mRNA binding in human MDA-MB-231 cells assessed as half life of THBS1 in presence of actinomycin D (reference value: 10.46 hrs)", "assay_type": "cell-based"}, "MDA-MB-231 [9]": {"tested_on": "MDA-MB-231", "assay": "Inhibition of HuR-THBS1 mRNA binding in human MDA-MB-231 cells incubated for 6 hrs by RNP immunoprecipitation assay", "assay_type": "cell-based"}, "[10]": {"target": "ELAV-like protein 1 (Homo sapiens) (UniProt Q15717)", "sequence (Q15717 whole entry)": "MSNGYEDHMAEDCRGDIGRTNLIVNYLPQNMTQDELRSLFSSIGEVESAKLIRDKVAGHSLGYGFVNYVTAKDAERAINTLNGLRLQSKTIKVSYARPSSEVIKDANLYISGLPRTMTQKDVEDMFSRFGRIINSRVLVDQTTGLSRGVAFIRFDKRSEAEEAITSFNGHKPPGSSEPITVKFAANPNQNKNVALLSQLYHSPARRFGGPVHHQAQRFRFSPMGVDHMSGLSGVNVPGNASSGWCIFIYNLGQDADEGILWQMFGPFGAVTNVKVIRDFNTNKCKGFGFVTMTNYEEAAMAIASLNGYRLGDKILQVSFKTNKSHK", "assay": "Thermal stabilization of HuR in human MDA-MB-231 cells at 20 uM at 42 to 54 degreeC incubated for 1 hr by western blot based cellular thermal shift assay", "assay_type": "cell-based"}, "[11]": {"assay": "Inhibition of full-length HuR-ARE fluorescein-labeled Msi1 mRNA binding (unknown origin) incubated for 2 hrs by fluorescence polarization assay", "parameters": "species or system Homo sapiens"}, "[12]": {"target": "RNA-binding protein Musashi homolog 2 (Homo sapiens) (UniProt Q96DH6)", "sequence (Q96DH6 whole entry)": "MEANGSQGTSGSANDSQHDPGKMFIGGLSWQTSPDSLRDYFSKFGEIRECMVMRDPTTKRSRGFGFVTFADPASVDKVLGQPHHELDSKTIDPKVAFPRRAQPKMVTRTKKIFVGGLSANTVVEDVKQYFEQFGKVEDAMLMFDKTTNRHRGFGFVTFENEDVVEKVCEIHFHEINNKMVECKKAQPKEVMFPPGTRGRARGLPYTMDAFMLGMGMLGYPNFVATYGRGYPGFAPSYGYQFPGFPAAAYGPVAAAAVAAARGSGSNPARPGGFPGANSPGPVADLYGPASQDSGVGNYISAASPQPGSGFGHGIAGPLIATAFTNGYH", "assay": "Inhibition of TGFbeta2-induced Msi2 protein expression in human MDA-MB-231 cells at 10 uM incubated for 48 hrs by Western blotting analysis", "assay_type": "cell-based"}, "MDA-MB-231 [13]": {"tested_on": "MDA-MB-231", "assay": "Cytotoxicity against HuR knockout 2 human MDA-MB-231 cells assessed as inhibition of cell growth by MTT assay (reference value: 5.320 uM)", "assay_type": "functional, cell-based"}, "MDA-MB-231 [14]": {"tested_on": "MDA-MB-231", "assay": "Cytotoxicity against HuR knockout 1 human MDA-MB-231 cells assessed as inhibition of cell growth by MTT assay (reference value: 5.320 uM)", "assay_type": "functional, cell-based"}, "[15]": {"assay": "Antitumor activity against human 2LMP cells xenografted athymic NCr-nu/nu mouse assessed as tumor growth inhibition at 50 mg/kg, ip administered 5 times a week for 3 weeks", "assay_type": "functional", "conditions": "504 h, read-out: TGI"}, "[16]": {"target": "ELAV-like protein 1 (Homo sapiens) (UniProt Q15717)", "assay": "Inhibition of TGFbeta1-induced HuR protein expression in human MDA-MB-231 cells at 10 uM incubated for 48 hrs by Western blotting analysis", "assay_type": "cell-based"}, "MDA-MB-231 [17]": {"tested_on": "MDA-MB-231", "assay": "Downregulation of Bcl-2 protein expression in human MDA-MB-231 cells incubated for 48 hrs by Western blotting analysis", "assay_type": "functional, cell-based", "conditions": "dose 5-10 µM"}, "[18]": {"target": "RNA-binding protein Musashi homolog 2 (Homo sapiens) (UniProt Q96DH6)", "assay": "Inhibition of TGFbeta1-induced Msi2 protein expression in human MDA-MB-231 cells at 10 uM incubated for 48 hrs by Western blotting analysis", "assay_type": "cell-based"}, "MDA-MB-231 [19]": {"tested_on": "MDA-MB-231", "assay": "Cytotoxicity against human MDA-MB-231 cells assessed as inhibition of cell growth by MTT assay", "assay_type": "functional, cell-based"}, "MDA-MB-231 [20]": {"tested_on": "MDA-MB-231", "assay": "Antitumor activity against human MDA-MB-231 cells xenografted athymic NCr-nu/nu mouse assessed as tumor growth delay by measuring tumor size at 400 mm^3 at 50 mg/kg, ip administered 5 times a week for 3 weeks (reference value: 15 days)", "assay_type": "functional"}, "MDA-MB-231 [21]": {"tested_on": "MDA-MB-231", "assay": "Downregulation of Msi2 protein expression in human MDA-MB-231 cells incubated for 48 hrs by Western blotting analysis", "assay_type": "functional, cell-based", "conditions": "dose 5-10 µM"}, "[22]": {"target": "ELAV-like protein 1 (Homo sapiens) (UniProt Q15717)", "assay": "Inhibition of TGFbeta2-induced HuR protein expression in human MDA-MB-231 cells at 10 uM incubated for 48 hrs by Western blotting analysis", "assay_type": "cell-based"}, "MDA-MB-231 [23]": {"tested_on": "MDA-MB-231", "assay": "Inhibition of HuR-Msi2 mRNA binding in human MDA-MB-231 cells at 10 uM incubated for 6 hrs by RNP immunoprecipitation assay", "assay_type": "cell-based"}, "MDA-MB-231 [24]": {"tested_on": "MDA-MB-231", "assay": "Antitumor activity against human MDA-MB-231 cells xenografted athymic NCr-nu/nu mouse assessed as tumor growth delay by measuring tumor size at 400 mm^3 at 50 mg/kg, ip administered 5 times a week for 3 weeks in presence of docetaxel (reference value: 15 days)", "assay_type": "functional"}, "MDA-MB-231 [25]": {"tested_on": "MDA-MB-231", "assay": "Inhibition of HuR-TGFB2 mRNA binding in human MDA-MB-231 cells incubated for 6 hrs by RNP immunoprecipitation assay", "assay_type": "cell-based"}, "[26]": {"assay": "Toxicity in athymic NCr-nu/nu mouse xenografted with human 2LMP cells assessed as effect on body weight gain at 50 mg/kg, ip administered 5 times a week for 3 weeks", "assay_type": "organism-based", "conditions": "in vivo, 504 h"}, "MDA-MB-231 [27]": {"tested_on": "MDA-MB-231", "assay": "Antitumor activity against human MDA-MB-231 cells xenografted athymic NCr-nu/nu mouse assessed as reduction in tumor size at 50 mg/kg, ip administered 5 times a week for 3 weeks", "assay_type": "functional, organism-based"}, "MDA-MB-231 [28]": {"tested_on": "MDA-MB-231", "assay": "Inhibition of HuR-XIAP mRNA binding in human MDA-MB-231 cells at 10 uM incubated for 6 hrs by RNP immunoprecipitation assay", "assay_type": "cell-based"}, "[29]": {"target": "Thrombospondin-1 (Homo sapiens) (UniProt P07996)", "assay": "Inhibition of TGFbeta1-induced THBS1 protein expression in human MDA-MB-231 cells at 10 uM incubated for 48 hrs by Western blotting analysis", "assay_type": "cell-based"}, "MDA-MB-231 [30]": {"tested_on": "MDA-MB-231", "assay": "Inhibition of HuR-16-nt biotinylated ARE Msi1 mRNA binding in human MDA-MB-231 cells at 20 uM by Western blotting analysis based pull-down assay", "assay_type": "cell-based"}, "MDA-MB-231 [31]": {"tested_on": "MDA-MB-231", "assay": "Downregulation of HuR protein expression in human MDA-MB-231 cells at 5 to 10 uM incubated for 48 hrs by Western blotting analysis", "assay_type": "functional, cell-based", "conditions": "dose 5-10 µM"}},
  "note": "pIC50, pKi: −log10 of the molar value. Calls of active or inactive are those of the source. The calls are words filed in the database; no cut-off is given here.",
  "data": [
    {"compound": "CC(C)(C)c1ccc(C(=O)Nc2ccc3[nH]c(C(=O)NO)cc3c2)cc1", "values": [
      {"measurement": "inhibition", "setting": "MDA-MB-231 [1]", "value": "Active"},
      {"measurement": "inhibition", "setting": "MDA-MB-231 [2]", "value": "Active"},
      {"measurement": "Activity", "setting": "MDA-MB-231 [3]", "value": "Dose-Dependent Effect"},
      {"measurement": "Activity", "setting": "MDA-MB-231 [4]", "value": "Active"},
      {"measurement": "inhibition", "setting": "[5]", "value": "Active"},
      {"measurement": "T1/2", "setting": "MDA-MB-231 [6]", "value": 4.76, "unit": "h"},
      {"measurement": "Activity", "setting": "MDA-MB-231 [7]", "value": "Active"},
      {"measurement": "T1/2", "setting": "MDA-MB-231 [8]", "value": 6.15, "unit": "h"},
      {"measurement": "inhibition", "setting": "MDA-MB-231 [9]", "value": "Active"},
      {"measurement": "Activity", "setting": "[10]", "value": "Active"},
      {"measurement": "pIC50", "setting": "[11]", "value": 5.56},
      {"measurement": "pKi", "setting": "[11]", "value": 6.19},
      {"measurement": "inhibition", "setting": "[12]", "value": "Active"},
      {"measurement": "pIC50", "setting": "MDA-MB-231 [13]", "value": 4.90},
      {"measurement": "pIC50", "setting": "MDA-MB-231 [14]", "value": 4.79},
      {"measurement": "inhibition in vivo at 50 mg/kg", "setting": "[15]", "value": 35, "unit": "%"},
      {"measurement": "inhibition", "setting": "[16]", "value": "Active"},
      {"measurement": "Activity", "setting": "MDA-MB-231 [17]", "value": "Dose-Dependent Effect"},
      {"measurement": "inhibition", "setting": "[18]", "value": "Active"},
      {"measurement": "pIC50", "setting": "MDA-MB-231 [19]", "value": 5.32},
      {"measurement": "Time", "setting": "MDA-MB-231 [20]", "value": 18, "unit": "days"},
      {"measurement": "Activity", "setting": "MDA-MB-231 [21]", "value": "Dose-Dependent Effect"},
      {"measurement": "inhibition", "setting": "[22]", "value": "Active"},
      {"measurement": "inhibition", "setting": "MDA-MB-231 [23]", "value": "Active"},
      {"measurement": "Time", "setting": "MDA-MB-231 [24]", "value": 32, "unit": "days"},
      {"measurement": "inhibition", "setting": "MDA-MB-231 [25]", "value": "Active"},
      {"measurement": "Activity", "setting": "[26]", "value": "Non-Toxic"},
      {"measurement": "Activity", "setting": "MDA-MB-231 [27]", "value": "Active"},
      {"measurement": "inhibition", "setting": "MDA-MB-231 [28]", "value": "Active"},
      {"measurement": "inhibition", "setting": "[29]", "value": "Active"},
      {"measurement": "inhibition", "setting": "MDA-MB-231 [30]", "value": "Active"},
      {"measurement": "Activity", "setting": "MDA-MB-231 [31]", "value": "inactive"}
    ]}
  ]
}
